Results on two compounds are retold here after publication PMC9142922, “Galactosylated Prodrugs: A Strategy to Improve the Profile of Nonsteroidal Anti-Inflammatory Drugs” (Pharmaceuticals, 2022).

Molecules are shown by their SMILES. Values after ≈ are worked out from the molar mass of the structure shown. Where two headings read alike, the source gives them in different places. Marks after values point to notes of the source that are not given here.

The nature of series [1]: Chemical stability in SGF (pH 1.2) and PBS (pH 7.4) at 37 °C. The conditions noted are these: unmodified incubated compound, 100 µM, PBS pH 7.4, 37 °C, mean ± SD. It counts as physicochemical. As to the method:
The concentrations of the galactosylated prodrugs and the parent drugs derived from the prodrugs were quantified using RP-HPLC (Table 2).
A 10 mM solution of each compound (the galactosylated prodrugs and their parent drugs) was added to either simulated gastric fluid (SGF-without pepsin) or phosphate-buffered saline (PBS, 50 mM). The SGF and PBS buffers were prepared as previously described.

The subject of series [2] is carrageenan-induced paw edema in mice. Put plainly: Carrageenan-induced paw edema / hyperalgesia. Format: in vivo, CD1 mice. Conditions: oral; parent drugs 10 mg/kg, equimolecular IbuGAL 17.8, IndoGAL 14.5, OkyGAL 16.4, FluGAL 16.7 mg/kg. As to the method:
We tested the anti-inflammatory response of the parent drugs and their relative galactosylated prodrugs by subcutaneously injecting λ-carrageenan (1% (w/v) in sterile saline, 20 μL) into the hind paws of mice.
Figure 4 (a–d). […] White circles represent control mice treated with vehicle. […] The increase in paw volume was evaluated and is expressed as the difference in paw volume measured at each time point and the basal paw volume measured immediately before carrageenan injection. Data are expressed as means ± S.E.M. of 6 animals. *** p < 0.001, ** p < 0.01 and […] vs. Control.
Carrageenan-induced paw edema was induced by injecting λ-carrageenan (1% w/v in sterile water, 20 μL) subcutaneously into the hind paws of mice using a 27 gauge needle. […] The increase in paw volume was evaluated using a plethysmometer (Ugo Basile, Milan, Italy) and reported as the difference between the paw volume measured at each time point and the basal paw volume measured immediately before carrageenan injection.
On the technique in general: Carrageenan injected into the paw causes an acute inflammation.

Series [3] can be described thus: Distribution coefficient n-octanol/PBS pH 7.4, shake-flask. Format: physicochemical. The conditions noted are these: room temperature, mean ± SD. An excerpt:
Lipophilicity is the key physicochemical parameter that influences solubility and various other aspects of the pharmacokinetic and pharmacodynamic profile of drugs. The hydrophilic-lipophilic behavior of galactosylated prodrugs and parent drugs was investigated by measuring the distribution coefficients (log D^pH) in n-octanol-phosphate buffered saline (PBS, pH 7.4) using the shake-flask technique.
Each log D value is an average of a minimum of six measurements.

The nature of series [4]: Solubility assay at 25 °C (RP-HPLC). It counts as physicochemical. Conditions: thermodynamic from solid. The method, then: The solubilities of the prodrugs and parent drugs were evaluated at 25 °C in water, simulated gastric fluid (SGF without pepsin, pH 1.2) and PBS (pH 7.4), which are the media used for chemical stability analyses. The solubilities were quantified using RP-HPLC.
Solubility was assessed in deionized water, SGF without pepsin (pH 1.2) and PBS (pH 7.4, 50 mM). The test solid compounds (5 mg) were added to 1 mL of water, PBS and SGF in glass tubes and shaken for 6 h at 25 °C. The suspensions were filtered through a PTFE 0.45 μm filter (VWR), and the resulting solutions were analyzed by means of RP-HPLC (see below). Experiments were performed in triplicate for each compound. Solubility is expressed as mM concentration.

For series [5], the system named is NSAID-induced gastric damage in mice. Put plainly: Ulcerogenicity study (gastric lesion score). It counts as in vivo, CD1 mice. The conditions noted are these: fasted mice, oral, parent 10 mg/kg or equimolecular prodrug, score 0 irritation, 1 lesions 1-2 mm, 2 lesions 2-3 mm, 3 lesions >3 mm; for Gastric Lesion Score (4 h): 4 h after treatment; for Gastric Lesion Score (48 h): 48 h after treatment. The method, then: NSAID-induced gastric damage in mice was evaluated following the procedure described by Chan et al.. […] The mucosa was then examined by means of a magnifying glass for the presence of irritation or frank hemorrhagic lesions (ulcers). Irritation was assigned a score of 0, and ulcerations were scored according to their length (a score of 1 for lesions with a length between 1 and 2 mm, a score of 2 for lesions with a length between 2 and 3 mm, a score of 3 for lesions greater than 3 mm). The sum of total scores was used for comparison.

Series [6] can be described thus: Stability in human serum at 37 °C. Conditions: for degradation in human serum in 24 h / Stability at 37 °C, % compound after 24 h of incubation, Human Serum: 37 °C; for half-life at 200 µM: male, human; for Stability at 37 °C, % compound after 24 h of incubation, Human Serum: unmodified incubated compound, 200 µM, mean ± SD.
Procedure: A solution of each compound (10 mM in DMSO) was added to human serum (sterile-filtered from human male AB plasma, USA origin, sterile-filtered, Sigma-Aldrich) and preheated and maintained at 37 °C ± 0.5 °C. Three-hundred microliters of the resulting solutions (200 µM) was withdrawn at appropriate time intervals and added to 300 µL of CH3CN, which contained 0.1% TFA, in order to deproteinize the serum. […] Each clear supernatant was filtered using 0.45 µm PTFE filters (VWR International S.r.l., Milano, Italy) and analyzed via RP-HPLC as described below.
The reverse-phase HPLC procedure allowed the galactosylated prodrugs and their parent drugs to be separated and quantified. […] The analytical column was a ZORBAX Eclipse XDB-C8 (150 × 4.6 mm, 5 µm; Agilent, Santa Clara, CA, USA). The mobile phase consisted of 0.1% aqueous TFA and 0.1% TFA CH3CN 50/50 w/w% at a flow rate of 1.0 mL/min. The injection volume was 20 µL (Rheodyne, Cotati, CA, USA). The column effluent was monitored at 228 nm and 254 nm, referenced against an 800 nm wavelength. The quantitation of compounds was calculated using calibration curves and the linearity of the calibration curves was determined in a concentration range of 1–100 µM (r^2 > 0.99).
Series [7] relates to acetic-acid-induced writhing in mice. Put plainly: Acetic-acid-induced writhing test. Format: in vivo, CD1 mice. Conditions: oral IbuGAL 17.8, IndoGAL 14.5, OkyGAL 16.4, FluGAL 16.7 mg/kg; 0.6% acetic acid i.p.; 48 h. As to the method:
The number of acetic-acid-induced abdominal stretches can be evaluated in Figure 3. Control mice received an intraperitoneal injection of 0.6% acetic acid (10 mL/kg). […]
Figure 5 (a–d). Total number of writhing episodes within 20 min after acetic acid injection. […] Data are expressed as means ± S.E.M. of 6 animals. *** p < 0.001, ** p < 0.01 vs. Control.
The acetic-acid-induced writhing test was performed as reported previously. […] The number of abdominal constrictions and extensions of the trunk and hind limbs were counted for each group of mice, starting from 5 min after the injection of acetic acid up to 20 min afterwards, and expressed as the number of writhing episodes.
Background: Writhing tests count abdominal constrictions after an irritant is injected.

Series [8] in a line: Serum protein binding by ultrafiltration. It counts as in vitro ADME. Conditions: male, human serum, 1 h at 37 °C, mean ± SD, read-out: Serum Protein Binding % Bound (converted). The method, then:
The serum protein binding properties of the galactosylated prodrugs and parent drugs were investigated using ultrafiltration. The compounds were incubated in human serum, and after 1 h, the concentrations of the compounds in the ultrafiltrate and the original serum were determined by means of RP-HPLC, and used to calculate the binding percentages, which are reported in Table 2.
Free- and protein-bound drug separation was obtained via ultrafiltration using commercially available membrane systems (Centrifree ultrafiltration devices with ultracel YM-T membrane, Merck, KGaA, Darmstadt, Germany). […] One milliliter of the solution was inserted into the sample reservoir of the ultrafiltration device and gently shaken in an orbital shaker for 1 h at 37 °C. […] The concentration of the compound both in the ultrafiltrate and filtrate was analyzed via RP-HPLC under the chromatographic conditions described above and using the calibration curves of standard solutions. […] The recovery of the ultrafiltration process was calculated to observe any possible compound loss during the operations in view of the limited solubility of the tested compounds.

The mark [9] stands for this setting: aqueous buffer, PBS pH 7.4 50 mM, 25 °C, read-out: Solubility at 25 °C, PBS pH 7.4.
Setting [10] is: simulated gastric fluid, SGF without pepsin pH 1.2, 25 °C, LOQ (HPLC) = 1 µM, read-out: Solubility at 25 °C, SGF pH 1.2.
[11] abbreviates: deionized water, 6 h shaking, 25 °C, mean, SD < 0.01, read-out: Solubility at 25 °C, Water.

Take `CC(C)Cc1ccc(C(C)C(=O)OC[C@H]2OC(O)[C@H](O)[C@@H](O)[C@H]2O)cc1` (some centres unmarked) [IbuGAL]: the “Stability at 37 °C, % compound after 24 h of incubation, PBS pH 7.4” value in series [1] was 81.2 ± 2.5%. In addition, the “effect on carrageenan-induced paw edema/hyperalgesia during the first phase (0–6 h)” value in series [2] is recorded as “did not change”. In series [3], the pH-dependent lipophilicity (logD) is 1.73 ± 0.04. In addition, the solubility at 6 h in series [4] (setting [9]) worked out at 2930 µM (≈ 1080 µg/mL). Besides, in series [4] (setting [10]), the solubility at 6 h was 2530 µM (≈ 932 µg/mL). Further, in series [4] (setting [11]), the solubility at 6 h worked out at 1940 µM (≈ 715 µg/mL). In addition, in series [5], the “Gastric Lesion Score (4 h)” value is given as 0 ** and the “Gastric Lesion Score (48 h)” value amounted to 1. In series [6], the “degradation in human serum in 24 h” value is recorded as around 50%; the half-life at 200 µM is around 24 h; the “Stability at 37 °C, % compound after 24 h of incubation, Human Serum” value came out at 54.1 ± 2.2%. In addition, the “writhing responses after 48 h vs control” value in series [7] is given as “significant decrease”. Moreover, the fraction unbound at 1 h, 100 µM in series [8] was 0.028.

Regarding `CC(C(=O)OC[C@H]1OC(O)[C@H](O)[C@@H](O)[C@H]1O)c1ccc(-c2ccccc2)c(F)c1` (some centres unmarked) [FluGAL], in series [1], the “Stability at 37 °C, % compound after 24 h of incubation, PBS pH 7.4” value is 87.3 ± 2.1%. In series [2], the “effect on carrageenan-induced paw edema/hyperalgesia during the first phase (0–6 h)” value is reported as “did not change”. In series [3], this compound came in with a pH-dependent lipophilicity (logD) of 1.89 ± 0.09. Further, in series [4] (setting [9]), the solubility at 6 h was 1010 µM (≈ 410 µg/mL). Besides, in series [4] (setting [10]), the solubility at 6 h was 1440 µM (≈ 585 µg/mL). Besides, the solubility at 6 h in series [4] (setting [11]) was 5210 µM (≈ 2120 µg/mL). For the same compound, in series [5], the “Gastric Lesion Score (4 h)” value is listed as 0 ** and the “Gastric Lesion Score (48 h)” value is reported as 0.5. In series [6], the “degradation in human serum in 24 h” value is listed as around 50%; the half-life at 200 µM is around 24 h; the “Stability at 37 °C, % compound after 24 h of incubation, Human Serum” value was determined as 57.3 ± 1.4%. Further, the “writhing responses after 48 h vs control” value in series [7] is given as “significant decrease”. Besides, in series [8], the fraction unbound at 1 h, 100 µM is 0.039.

Broadly, the logD is lipophilicity at a set pH, counting ionised and neutral species. High values mean a more lipophilic compound, low ones a more hydrophilic compound. In general, solubility refers to the dissolved amount per volume that the medium holds. For orientation: half-life means the time in which the quantity being followed falls by half. Higher therefore signals slow decline.
